In one series the target is CYP 2C9 (Homo sapiens, UniProt P11712). In words: CYP inhibition 2C9. It counts as in vitro ADME. On the set-up: unit not given here. To be noted: Conc. 10 uM.
The next series addresses T1, CYP 1A2 (Homo sapiens, UniProt P05177).
T1 sequence (P05177 1-516): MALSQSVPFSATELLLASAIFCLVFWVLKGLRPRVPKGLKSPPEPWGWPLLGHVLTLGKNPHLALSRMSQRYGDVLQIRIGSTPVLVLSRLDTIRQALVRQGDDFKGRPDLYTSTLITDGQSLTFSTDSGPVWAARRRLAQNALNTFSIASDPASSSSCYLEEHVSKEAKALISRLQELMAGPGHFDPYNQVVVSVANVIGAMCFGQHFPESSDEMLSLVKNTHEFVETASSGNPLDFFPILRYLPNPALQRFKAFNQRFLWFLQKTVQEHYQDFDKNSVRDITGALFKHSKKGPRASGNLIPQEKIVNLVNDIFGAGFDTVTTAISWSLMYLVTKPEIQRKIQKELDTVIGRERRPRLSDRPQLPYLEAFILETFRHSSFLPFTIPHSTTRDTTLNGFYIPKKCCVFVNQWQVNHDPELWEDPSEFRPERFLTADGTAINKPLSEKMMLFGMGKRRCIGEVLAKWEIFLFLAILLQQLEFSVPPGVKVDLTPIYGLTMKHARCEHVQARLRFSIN
In words: CYP inhibition 1A2. In kind it is in vitro ADME. On the set-up: unit not given here. To be noted: Conc. 10 uM.

Another series has as its system mature let-7 miRNAs. In words: Dual luciferase reporter assay of mature let-7 miRNAs in HepG2 cells. In kind it is cell-based. The conditions noted are these: 3-10 μM, compared with LN1632. As for the experimental part:
(§1) To test the structure-activity relationship, 39 LN1632-related analogs (JGJ001-39) were synthesized and their potency and specificity to inhibit LIN28B-RNA binding activity and upregulate mature let-7 miRNA levels was measured. […] The dual luciferase reporter assay was performed as previously described (89).

A short description of series [1]: Microsomal stability, CD-1 Mouse. The conditions noted are these: Conc. 5 uM. It counts as in vitro ADME.
In the next series the target is T2, CYP 2C8 (Homo sapiens, UniProt P10632).
T2 sequence (P10632 1-490): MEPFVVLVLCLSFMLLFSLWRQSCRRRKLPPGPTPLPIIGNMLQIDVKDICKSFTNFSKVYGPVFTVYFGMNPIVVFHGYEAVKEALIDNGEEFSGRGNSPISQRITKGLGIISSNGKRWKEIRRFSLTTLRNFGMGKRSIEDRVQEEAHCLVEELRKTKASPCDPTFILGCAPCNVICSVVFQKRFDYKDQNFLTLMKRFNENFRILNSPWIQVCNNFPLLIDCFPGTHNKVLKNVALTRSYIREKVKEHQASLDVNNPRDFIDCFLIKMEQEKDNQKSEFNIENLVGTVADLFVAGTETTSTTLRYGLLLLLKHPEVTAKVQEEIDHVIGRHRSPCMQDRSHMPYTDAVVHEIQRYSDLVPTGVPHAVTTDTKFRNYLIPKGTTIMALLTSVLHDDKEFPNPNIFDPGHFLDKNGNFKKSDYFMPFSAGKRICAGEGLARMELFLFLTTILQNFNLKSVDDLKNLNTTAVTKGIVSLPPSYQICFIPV
In words: CYP inhibition 2C8. To be noted: Conc. 10 uM. It counts as in vitro ADME. On the set-up: unit not given here.

The nature of another series: Caco2 permeability. In kind it is in vitro ADME. To be noted: human, Caco-2, Conc. 5 uM. Background: Caco-2 monolayers are a common model of the intestinal barrier.
The next series has as its target T3, CYP 2B6 (Homo sapiens, UniProt P20813).
T3 sequence (P20813 1-491): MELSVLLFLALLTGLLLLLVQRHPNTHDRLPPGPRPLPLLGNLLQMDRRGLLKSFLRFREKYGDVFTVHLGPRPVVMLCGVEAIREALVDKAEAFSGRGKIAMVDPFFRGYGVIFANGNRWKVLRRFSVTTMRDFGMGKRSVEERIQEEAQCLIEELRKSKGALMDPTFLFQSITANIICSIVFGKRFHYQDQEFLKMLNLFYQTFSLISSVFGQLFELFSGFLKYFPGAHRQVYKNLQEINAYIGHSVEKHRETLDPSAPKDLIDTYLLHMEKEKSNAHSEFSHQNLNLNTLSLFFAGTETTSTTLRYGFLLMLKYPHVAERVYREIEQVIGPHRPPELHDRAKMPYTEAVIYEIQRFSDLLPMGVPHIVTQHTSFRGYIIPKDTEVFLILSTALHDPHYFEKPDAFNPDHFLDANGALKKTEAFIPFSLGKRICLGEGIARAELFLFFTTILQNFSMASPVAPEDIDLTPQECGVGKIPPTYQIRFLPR
In words: CYP inhibition 2B6. In kind it is in vitro ADME. Also noted: unit not given here. The conditions noted are these: Conc. 10 uM.

The next series deals with CYP 2C19 (Homo sapiens, UniProt P33261). In words: CYP inhibition 2C19. In kind it is in vitro ADME. Also noted: unit not given here. The conditions noted are these: Conc. 10 uM.
For a further series, the target named is CYP 2D6 (Homo sapiens, UniProt P10635). In words: CYP inhibition 2D6. In kind it is in vitro ADME. On the set-up: unit not given here. The conditions noted are these: Conc. 10 uM.
Series [2] in a line: Microsomal stability, Human. In kind it is in vitro ADME. To be noted: Conc. 5 uM.
Series [3] deals with T4, LIN28B/pre-let-7a-2 binding (Homo sapiens, UniProt Q6ZN17).
T4 construct: made in house; host or cells: stably transduced HEK cells; used as diluted protein lysate, not purified
T4 sequence (Q6ZN17 1-250): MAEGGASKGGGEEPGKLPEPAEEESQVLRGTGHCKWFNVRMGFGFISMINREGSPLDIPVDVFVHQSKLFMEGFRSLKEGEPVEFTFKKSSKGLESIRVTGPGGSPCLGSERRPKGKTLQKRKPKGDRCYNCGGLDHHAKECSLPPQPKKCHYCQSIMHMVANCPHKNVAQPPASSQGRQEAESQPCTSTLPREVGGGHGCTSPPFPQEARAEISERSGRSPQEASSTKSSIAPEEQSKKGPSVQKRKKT
In words: FRET assay, EGFP-tagged LIN28B and BHQ-1 labelled pre-let-7a-2. The conditions noted are these: doses 1.25 uM-20 uM; compared with LN1632. As to the method: As described herein, compounds of formula (I) and (II) show Lin28/let-7 inhibitory activity in FRET assays in vitro and in LSCs and LSC-like Kasumi-1 cells. FRET assay was performed as previously described (51).
In order to improve binding and inhibitory capacity of a compound to LIN28b, we predicted the binding mode of LN1632 to LIN28B. […] With this model in hand, we synthesized novel compounds with improved binding capacity to Lin28b (JGJ002-JGJ008, FIG. 8). Compounds were screened using a previously described FRET-assay with an EGFP-tagged LIN28B as donor and a BHQ-1 quencher labelled pre-let-7a-2 (pre-let-7a-2-BHQ1) as acceptor (51). Briefly, recombinant LIN28B-EGFP was harvested from stably transduced HEK cells and diluted with binding buffer (300 mM NaCl, 25 mM HEPES pH 7.2, 10 μM ZnCl2, 1% Odyssey Blocking Buffer, 0.05% Tween 20, 0.5 mM TCEP) in order to adjust ideal FRET-quenching signal intensity. Protein lysate and compounds (JGJ001-JGJ008) were pre-incubated in doses ranging from 1.25 uM-20 uM for 20 min in 100 uL diluted protein lysate. Subsequently pre-let-7a-2-BHQ1 was added to the mixture (at 6.25 nM) and EGFP-LIN28B donor emission was measured using a Tecan Spark Plate Reader ([…], excitation at 488 nm, emission read-out at […], 30 flashes/s). […] Increased endogenous let-7 miRNA levels can target a panoply of LCS and cancer stem cell hallmark genes thus inhibiting tumor growth.
as §1

Setting [4] is: microsomes, read-out: Microsomal stability T½.

A word on the microsomal CLint: it is the rate of metabolic loss divided by the concentration. As a reminder, the Papp A→B is the apparent permeability from the apical to the basolateral side of a cell layer. By Papp B→A is commonly meant how fast a substance crosses the layer from the basolateral side. Usually efflux ratio stands for a quotient of directional permeabilities that is used to spot active efflux.

CYP 2D6, sequence (P10635 whole entry): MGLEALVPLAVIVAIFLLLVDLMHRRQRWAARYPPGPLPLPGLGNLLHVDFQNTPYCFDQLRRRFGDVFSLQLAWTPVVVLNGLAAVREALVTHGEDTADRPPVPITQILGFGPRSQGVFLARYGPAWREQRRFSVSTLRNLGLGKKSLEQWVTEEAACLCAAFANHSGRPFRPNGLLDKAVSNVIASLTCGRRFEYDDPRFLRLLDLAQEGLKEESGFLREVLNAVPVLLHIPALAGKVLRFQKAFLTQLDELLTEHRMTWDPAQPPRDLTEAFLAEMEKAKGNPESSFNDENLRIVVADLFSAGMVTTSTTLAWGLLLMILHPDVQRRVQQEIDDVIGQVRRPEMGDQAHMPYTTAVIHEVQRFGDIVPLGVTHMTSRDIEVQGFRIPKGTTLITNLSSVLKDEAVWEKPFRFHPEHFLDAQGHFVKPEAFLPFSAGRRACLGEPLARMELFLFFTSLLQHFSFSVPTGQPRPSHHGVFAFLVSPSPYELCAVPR
CYP 2C19, sequence (P33261 whole entry): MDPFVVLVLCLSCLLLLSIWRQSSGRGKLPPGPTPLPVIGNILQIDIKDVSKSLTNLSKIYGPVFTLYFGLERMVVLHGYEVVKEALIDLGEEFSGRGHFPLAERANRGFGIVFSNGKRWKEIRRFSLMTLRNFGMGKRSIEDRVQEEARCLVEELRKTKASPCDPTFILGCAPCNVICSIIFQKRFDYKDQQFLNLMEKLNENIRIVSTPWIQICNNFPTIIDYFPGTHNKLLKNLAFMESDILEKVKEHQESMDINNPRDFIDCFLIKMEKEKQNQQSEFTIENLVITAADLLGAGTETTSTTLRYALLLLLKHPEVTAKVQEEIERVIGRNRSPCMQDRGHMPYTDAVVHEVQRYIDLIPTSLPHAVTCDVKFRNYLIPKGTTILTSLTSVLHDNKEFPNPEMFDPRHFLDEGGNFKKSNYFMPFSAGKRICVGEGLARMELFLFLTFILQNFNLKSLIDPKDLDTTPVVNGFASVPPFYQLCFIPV
CYP 2C9, sequence (P11712 whole entry): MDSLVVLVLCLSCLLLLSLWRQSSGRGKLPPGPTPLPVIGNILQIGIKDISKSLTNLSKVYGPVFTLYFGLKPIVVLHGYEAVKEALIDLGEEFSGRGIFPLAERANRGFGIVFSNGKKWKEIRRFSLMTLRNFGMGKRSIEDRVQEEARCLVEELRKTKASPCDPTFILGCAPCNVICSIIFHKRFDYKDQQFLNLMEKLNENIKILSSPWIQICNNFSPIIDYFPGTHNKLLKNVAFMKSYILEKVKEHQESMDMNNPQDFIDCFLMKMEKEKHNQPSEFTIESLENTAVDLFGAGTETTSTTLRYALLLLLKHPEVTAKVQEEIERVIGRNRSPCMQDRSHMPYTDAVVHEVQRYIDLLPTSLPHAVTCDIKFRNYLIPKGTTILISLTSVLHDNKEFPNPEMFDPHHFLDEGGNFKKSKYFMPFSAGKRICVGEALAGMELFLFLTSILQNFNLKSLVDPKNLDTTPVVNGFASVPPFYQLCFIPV

On to `CC(=O)Nc1cc(F)cc(-c2ccc3ncc(C)n3n2)c1` [JGJ026, N-(3-Fluoro-5-(3-methylimidazo[1,2-b]pyridazin-6-yl)phenyl)acetamide], for which the “CYP inhibition 2C9” value at CYP 2C9 is reported as 48.8. Besides, the “CYP inhibition 1A2” value at CYP 1A2 worked out at 96.2. The “Upregulation of mature let-7 miRNAs” value with mature let-7 miRNAs was “upregulated mature let-7 miRNAs at significantly lower doses than LN1632”. Besides, the “Microsomal stability % Remaining at T30” value in series [1] is recorded as “T30 = 17%”; in series [2], “T30 = 54.7%”. Moreover, the microsomal CLint at 5 uM in series [1] (microsomes) amounted to 118 µL/min/mg; in [2] (microsomes), 38.2 µL/min/mg. Further, the values for the half-life at 5 uM in series [1] (setting [4]) and in series [2] (setting [4]) were 11.8 min and 36.2 min, respectively. In addition, the “CYP inhibition 2C8” value at CYP 2C8 was found to be 61.1. Moreover, in the series “Caco2 permeability”, the apparent permeability from apical to basolateral (Papp A→B) at 5 uM was 27.2 ×10⁻⁶ cm/s. This molecule also showed a Papp B→A at 5 uM in the series “Caco2 permeability” of 25 ×10⁻⁶ cm/s. Besides, the efflux ratio at 5 uM in the series “Caco2 permeability” came out at 0.6. For the same molecule, the recovery at 5 uM in the series “Caco2 permeability” (read-out: Caco2 Mean A-B % Recovery) was 84%. Also, the “CYP inhibition 2B6” value at CYP 2B6 was determined as 30.9. The “CYP inhibition 2C19” value at CYP 2C19 is on record as 35. Also, the “CYP inhibition 2D6” value at CYP 2D6 was 67.8. In addition, in [3], the “Inhibition of LIN28B binding to pre-let-7a (FRET signal)” value is listed as “inhibit LIN28's RNA-binding capacity significantly more than compound LN1632”.

These data come from patent US20230059009A1, “INHIBITORS OF LIN28 AND METHODS OF USE THEREOF” (The Regents of the University of California, priority 2019, published 2023).
